Data reported in patent US6689762B1, “Composition and methods for treatment of HIV infection” (Enzon Pharmaceuticals, Inc., priority 1998, dated 2004).
Values joined by “and” are separate entries in the source; they are usually repeats but may differ in a detail not shown here. Identical values can stand only once.

Legend:
[1] = tested on: HIV-RT in supernatants of HIV-1 infected CEM/0 T-cells; test: HIV-RT ELISA in supernatants of HIV-1 infected CEM/0 T-cells; type: cell-based; conditions: for inhibition of HIV-RT in supernatants: Experiment 8 text, day 7; for HIV-RT (negative values set to 0): Table 6, per specimen
Method: The following is a general procedure for the HIV-reverse transcriptase assay:
Materials and Methods: The cell line used for this experiment is CEM/0, a human T-cell leukemic cell line. PEG-ASNase (ONCASPAR) is provided by Rhone-Poulenc Rorer. Saquinavin (SQ) is commercially available. AZT is purchased from Sigma. […] The drug concentrations used are as follows:
(§1) Briefly, 3×10^6 cells/ml are stimulated with PHA+ media for 48 hours at 37° C. with 5% CO2. Also, the same number of cells are incubated in PHA free media for 48 hours to serve as the negative control. At this point the cells are inoculated with the HIV-1 virus as per standard protocol. Note that in this experiment, the HIV containing supernatant from the PLA-stimulated healthy human peripheral mononuclear cells (PBMC) is not removed from the PHA-stimulated CEM/0 cell culture. […] These virus particles are released by already infected T-cells and/or lymph nodes of patients.
(§2) The experimental drugs are added to the cells in the appropriate concentrations at the same time as viral inoculation or 90 minutes after the viral incubation, a time sufficient for the T-cells to be infected and start producing new HIV-1 virus particles. The control cells are resuspended in drug-free media for the duration of the exposure which lasted seven days. Aliquots of media from the control flasks only are obtained on day 5 post Rx. At day seven, three 1 ml each, aliquots of media are removed from the flasks and stored under liquid nitrogen. In addition, the remaining cells are split into three and then pelleted and stored at −80° C.

[2] = tested on: HIV-RNA in HIV-1 infected CEM/0 T-cell pellets; test: HIV-1 quantitative RNA assay (HIV-1 Monitor) in CEM/0 T-cell pellets; type: cell-based; conditions: for mean, X3: Table 7; for N*: Table 7, per specimen, day 7, PEG 0.400 IU/ml, SAQ 25 uM, AZT 1 uM, MISID 0.685 uM, combinations PEG 0.233 IU/ml + SAQ 14.52 uM; for % control: Table 7 and text of Experiment 9; for Log 10 N: Table 2, per flask
Method: This experiment is carried out using a similar procedure, and the same concentrations of materials as in Experiment 1, however the exposure of HIV-RNA in T-cell pellets to a combination of PEG-ASNase and Saquinavir is measured. […] It should be noted that “PEG” in Table 2 represents PEG-ASNase.
The cell line used for these studies is CEM/0, a human T-cell leukemic cell line. PEG-ASNase (ONCASPAR) is provided by Rhone-Poulenc Rorer. Saquinavin is commercially available. AZT is purchased from Sigma. MISID, a ribonucleotide reductase inhibitor, is synthesized as indicated in Nandy P, Lien E J, Avramis V I, Med. Chem. Res. 1995, 5:664-679. RPMI-1640 media (Irvine Scientific, Irvine, Calif.), is enriched with 10% Fetal Calf Serum (Gemini Biosource, Calabasas, Calif.), 5% 1M Hepes Buffer solution and 5% Non-essential amino acids (Irvine Scientific, Irvine, Calif.). The drug concentrations used are as follows:
as §1, with “PHA-stimulated” for “PLA-stimulated”
as §2
The samples produced from this experiment are itemized. The cell pellets of the cellular cultures (see Experiment 7) from the 90 minute viral incubation flasks are assayed for HIV-RNA quantitative assay using a kit for the assay, non-radioactive. The standard curve is determined and the HIV-RNA levels for the experimental samples are calculated and reported previously.

CEM/0 cells [3] = test: cells; type: cell-based, human; conditions: for IC50: Homo sapiens, CCRF-CEM
Excerpt: A human leukemic T-cell line, hereafter referred to as CEM/0 is used for this experiment. PEG-ASNase is obtained from Rhone-Poulenc Rorer Pharmaceuticals Inc under the tradename Oncaspar®. Saquinavir is obtained from Roche Laboratories under the tradename Invirase™. RPMI-1640 media obtained from Irvine Scientific, Irvine Calif. is enriched with 10% Fetal Calf Serum obtained from Gemini Biosource, Calabasas, Calif., 5% 1M Hepes buffer solution and 5% non-essential amino acids obtained from Irvine Scientific, Irvine Calif.
An experiment is carried out to determine the cytotoxicity of Saquinavir and PEG-ASNase. For determining the cytotoxicity of either compound alone, 2×10^5 cells/ml are incubated in 24-well plates with the following drug concentrations:
(§3) In all in vitro studies, the negative control cells are incubated in a drug-free media for the same duration and under the same conditions as the experimental samples. Cell density is measured via cell counting using a Coulter Counter coupled with a Coulter Channelyzer for each of the experimental flasks at 24, 48 and 72 hours after incubation. Additionally, Trypan Blue Exclusion tests are performed for each of these experimental conditions. Cell numbers are corrected for the viability determined by the Trypan Blue test and presented as a percentage of the untreated control.

CEM/0 cells [4] = test: Sequential and concurrent combination cytotoxicity of PEG-ASNase and Saquinavir; type: cell-based, human; conditions: CEM/0 T-cells
Method: In this experiment, the described range of concentrations is used to investigate the combined regimen of Saquinavir and PEG-ASNase. For the sequential combination studies of PEG-ASNase followed by Saquinavir, cells are incubated with the concentrations provided below of PEG-ASNase for 24 hours. Then Saquinavir, in the concentrations provided below, is added to the appropriate cells for an additional twenty-four (24) hours, bringing the total exposure time to forty-eight (48) hours. The exposure involved 2×10^5 cells/ml being incubated in a tissue culture flask with concentrations of the drugs investigated as provided below. […] The drug concentrations used are as follows:
as §3
The reverse sequence is also tested. […] Saquinavir is administered and the cells incubated for twenty-four (24) hours followed by addition of PEG-ASNase and an additional incubation period of twenty-four (24) hours, bringing the total exposure time to forty-eight (48) hours. Other than the drug sequence, the methodology is the same as that mentioned immediately above. The concurrent combination regimen is also tested using the same methodology. […] The concurrent combined methodology experiment had the samples exposed to forty-eight (48) hours of concurrent combined exposure.

[5] = tested on: asparagine, glutamine, and aspartic acid levels of CEM/0 cells; test: Determination of amino acid levels after PEG-ASNase exposure (HPLC); type: cell-based, human; conditions: 24 hours exposure
Method: Experiments to determine the amino acid level in cell suspensions and cell media are performed to determine the effect of PEG-ASNase on the amino acid levels, particularly the levels of asparagine, glutamine, and aspartic acid.
Samples of 50 μl media and 10 μl of 1 mM aminoadopic acid are added to 450 μl of cold methanol in 1.5 ml microfuge tubes. The mixtures are vortexed and centrifuged at 8700 g for two minutes. The supernatants are transferred to borosilicate glass test tubes (13×100 mm) and lyophilized. The specimens are stored at −20° C. until they are analyzed by HPLC. Prior to HPLC analysis, the samples are dissolved in a buffer containing 95% […] disodium hydrogen phosphate and 5% acetonitrile.

Molecule: Cc1cn([C@H]2C[C@H](N=[N+]=[N-])[C@@H](CO)O2)c(=O)[nH]c1=O [AZT, zidovudine]
- inhibition of HIV-RT in supernatants [1]: Great inhibition
- HIV-RT (negative values set to 0) [1]: 0 pg/well
- mean, X3 [2]: 102473 copies/cell pellet
- N* [2]: 107269 copies/cell pellet and 97933 copies/cell pellet and 102217 copies/cell pellet
- % control [2]: 48%

Molecule: CC(C)(C)NC(=O)[C@@H]1C[C@@H]2CCCC[C@@H]2CN1C[C@@H](O)[C@H](Cc1ccccc1)NC(=O)[C@H](CC(N)=O)NC(=O)c1ccc2ccccc2n1 [Saquinavir]
- IC50 (CEM/0 cells [3]; 72 h, read-out: IC50 in CEM/0 cells): 26 µM
- IC50 (CEM/0 cells [3]; read-out: IC50 in CEM/0 cells): 21 to 28 µM
- IC50 (CEM/0 cells [3]; read-out: Saquinavir IC50 alone): 25 µM
- kill compared to untreated control (CEM/0 cells [3]; Saquinavir 10 μM): 8.76%
- kill compared to control cells (CEM/0 cells [3]; Saquinavir 100 μM, highest concentration tested): 99.50%
- cell kill (CEM/0 cells [3]; Saquinavir 0.001 to 1 μM): no cell kill
- IC50 (CEM/0 cells [4]; Homo sapiens, CCRF-CEM, read-out: IC50 in combination, Saquinavir part, concurrent combination of PEG-ASNase and Saquinavir): 14.5 µM
- IC50 (CEM/0 cells [4]; read-out: IC50 in combination, Saquinavir part, concurrent combination of PEG-ASNase and Saquinavir, listed as SAQ): 14.5 µM
- inhibition of HIV-RT in supernatants [1]: Great inhibition
- HIV-RT (negative values set to 0) [1]: 0 pg/well
- inhibition of HIV-1 RNA production in comparison with the control ([2]; Experiment 5 text): approximately 36%
- Log 10 N ([2]; listed as SAQ): 5.06 and 5.09
- mean, X3 [2]: 125628 copies/cell pellet
- N* ([2]; listed as SAQ): 138583 copies/cell pellet and 109522 copies/cell pellet and 128780 copies/cell pellet
- % control [2]: 59%

B1: PEG-ASNase: asparaginase conjugated with polyethylene glycol (PEG); sold under the name ONCASPAR by Rhône-Poulenc Rorer (conjugate, UniProt P00805 23-348, looked up)
L-asparaginase 2: LPNITILATGGTIAGGGDSATKSNYTVGKVGVENLVNAVPQLKDIANVKGEQVVNIGSQDMNDNVWLTLAKKINTDCDKTDGFVITHGTDTMEETAYFLDLTVKCDKPVVMVGAMRPSTSMSADGPFNLYNAVVTAADKASANRGVLVVMNDTVLDGRDVTKTNTTDVATFKSVNYGPLGYIHNGKIDYQRTPARKHTSDTPFDVSKLNELPKVGIVYNYANASDLPAKALVDAGYDGIVSAGVGNGNLYKSVFDTLATAAKTGTAVVRSSRVPTGATTQDAEVDDAKYGFVASGTLNPQKARVLLQLALTQTKDPQQIQQIFNQY
modifications: PEG conjugate (pegaspargase)
notes: asparaginase conjugated with polyethylene glycol (PEG); sold under the name ONCASPAR by Rhône-Poulenc Rorer
- PEG-ASNase IC50 alone (CEM/0 cells [3]; CEM/0 T-cells, single agent): 0.4 IU/ml and 0.40 IU/ml
- concentration that produces a cytostatic condition (CEM/0 cells [3]; CEM/0 cells in vitro, over 72 hours): approximately 0.5 IU/ml
- effect on cell growth (CEM/0 cells [3]; PEG-ASNase 0.03, 0.1, 0.2, 0.3 and 0.4 IU/ml, compared to control growth rate): marginally effective in preventing cell growth
- IC50 in combination, PEG-ASNase part (CEM/0 cells [4]; concurrent combination of PEG-ASNase and Saquinavir): 0.233 IU/ml
- IC50 in combination, PEG-ASNase part (CEM/0 cells [4]; concurrent combination of PEG-ASNase and Saquinavir, listed as PEG): 0.23 IU/ml
- glutamine level, % of the untreated control ([5]; highest PEG-ASNase concentration): less than 3.0%
- asparagine level, % of the untreated control ([5]; various PEG-ASNase concentrations): less than 3.0%
- HIV-RT (negative values set to 0) [1]: 0 pg/well
- Log 10 N ([2]; listed as PEG): 5.26 and 5.42
- mean, X3 [2]: 173448 copies/cell pellet
- N* ([2]; listed as PEG): 183977 copies/cell pellet and 156304 copies/cell pellet and 180062 copies/cell pellet
- % control [2]: 81%
- effect on HIV-RNA in cell pellets ([2]; text of Experiments 5, 6 and 9): no apparent effect
